The values that follow come from patent publication US9926319B2, “Pyridyl piperidines” (MERCK PATENT GMBH, priority 2014, dated 2018).

Series [1] has as its system Wnt pathway. In words: Cellular assay for Wnt pathway activity (luciferase reporter cell based assay). The conditions noted are these: 24 h, HEK293 luciferase reporter cell line (ER-DSH, TCF dependent promoter), induced with estrogen (1 μM), read-out: 7df3 IC50. In general terms: In a reporter assay the amount or activity of a reporter protein is the signal.
A short description of series [2]: CLint (intrinsic clearance) assay, microsomal incubation. To be noted: NADPH, 37° C., up to 30 min; for microsomal CLint at 0.8 μM: human, liver microsomes, pH 7.4, human liver microsomes 0.5 mg/mL protein; for Human Clint: human liver microsomes 0.5 mg/mL protein. It counts as in vitro ADME, Human. The essentials:
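Test compound at 0.8 μM was incubated at 37 °C with liver microsomes at 0.5 mg/mL protein in 0.1 M potassium phosphate pH 7.4 with 1 mM MgCl2, NADPH-started, with no-cofactor controls. Acetonitrile quench at 0, 5, 10, 20 and 30 min, then LC-MS/MS peak-area decline. CLint (μL/min/mg protein) = k·1000/protein concentration.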
A general note: Microsomes from liver hold many membrane-bound enzymes, among them those of drug oxidation.

What is called IC50 is the midpoint of a concentration-inhibition curve. One may read the microsomal CLint as a measure of how fast metabolising enzymes remove a compound, apart from limits set by blood flow. With `Cn1cc(-c2ccc(-c3cncc(Cl)c3N3CCC4(CC3)NCCNC4=O)cc2)cn1` [Example 71, 9-{3-Chloro-5-[4-(1-methyl-1H-pyrazol-4-yl)-phenyl]-pyridin-4-yl}-1,4,9-triaza-spiro[5.5]undecan-5-one], the IC50 in series [1] amounted to 12 nM. Also, in series [2], the microsomal CLint at 0.8 μM was found to be 49 µL/min/mg.

`O=C1NCCNC12CCN(c1c(Cl)cncc1-c1ccc3oc(=O)[nH]c3c1)CC2` [Example 72, 9-[3-Chloro-5-(2-oxo-2,3-dihydro-benzooxazol-5-yl)-pyridin-4-yl]-1,4,9-triaza-spiro[5.5]undecan-5-one]: in series [1], the IC50 is 35 nM. In series [2], the microsomal CLint at 0.8 μM is < 10 µL/min/mg.

Consider `CN1C(=O)Cc2ccc(-c3cncc(Cl)c3N3CCC(N)(C(N)=O)CC3)cc21` [Example 73, 4-Amino-5′-chloro-3′-(1-methyl-2-oxo-2,3-dihydro-1H-indol-6-yl)-3,4,5,6-tetrahydro-2H-[1,4′]bipyridinyl-4-carboxylic acid amide], for which, in series [1], the IC50 was found to be 12 nM. Also, the microsomal CLint at 0.8 μM in series [2] was determined as 17 µL/min/mg.

In the case of `CN1C(=O)Cc2ccc(-c3cncc(Cl)c3N3CCC4(CC3)NCNC4=O)cc21` [Example 74, 8-[3-Chloro-5-(1-methyl-2-oxo-2,3-dihydro-1H-indol-6-yl)-pyridin-4-yl]-1,3,8-triaza-spiro[4.5]decan-4-one], the 50% inhibitory concentration (IC50) in series [1] was 20 nM. The microsomal CLint at 0.8 μM in series [2] worked out at 20 µL/min/mg.

On to `CN1c2ccc(-c3cncc(Cl)c3N3CCC4(CC3)NCNC4=O)cc2CS1(=O)=O` [Example 75, 8-[3-Chloro-5-(1-methyl-2,2-dioxo-2,3-dihydro-1H-2l6-benzo[c]isothiazol-5-yl)-pyridin-4-yl]-1,3,8-triaza-spiro[4.5]decan-4-one], for which, in series [1], the IC50 came out at 4.7 nM. In addition, the microsomal CLint at 0.8 μM in series [2] stood at 20 µL/min/mg.

With `CN1c2ccc(-c3cncc(F)c3N3CCC4(CCNC4=O)CC3)cc2CS1(=O)=O` [Example 76, 8-[3-Fluoro-5-(1-methyl-2,2-dioxo-2,3-dihydro-1H-2l6-benzo[c]isothiazol-5-yl)-pyridin-4-yl]-2,8-diaza-spiro[4.5]decan-1-one], in series [1], the IC50 stood at 9.1 nM. Moreover, the “Human Clint” value in series [2] is 36 µL/min/mg.

Turning to `COCC1(C(N)=O)CCN(c2c(Cl)cncc2-c2ccc3c(c2)CS(=O)(=O)N3C)CC1` [Example 77, 5′-Chloro-4-methoxymethyl-3′-(1-methyl-2,2-dioxo-2,3-dihydro-1H-2l6-benzo[c]isothiazol-5-yl)-3,4,5,6-tetrahydro-2H-[1,4′]bipyridinyl-4-carboxylic acid amide], the IC50 in series [1] is 0.43 nM. For the same compound, in series [2], the microsomal CLint at 0.8 μM was found to be 75 µL/min/mg.

On to `CC(C)n1cc(-c2ccc(-c3cncc(Cl)c3N3CCC4(CC3)NCNC4=O)cc2)cn1` [Example 78, 8-{3-Chloro-5-[4-(1-isopropyl-1H-pyrazol-4-yl)-phenyl]-pyridin-4-yl}-1,3,8-triaza-spiro[4.5]decan-4-one], for which the IC50 in series [1] amounted to 3.8 nM. The microsomal CLint at 0.8 μM in series [2] amounted to 30 µL/min/mg.

Consider `Cn1cc(-c2ccc(-c3cncc(F)c3N3CCC4(CC3)CNC(=O)O4)cc2)cn1` [Example 79, 8-{3-Fluoro-5-[4-(1-methyl-1H-pyrazol-4-yl)-phenyl]-pyridin-4-yl}-1-oxa-3,8-diaza-spiro[4.5]decan-2-one], for which the IC50 in series [1] was determined as 43 nM. In series [2], the “Human Clint” value is 24 µL/min/mg.

`C#Cc1cncc(-c2ccc3c(c2)CS(=O)(=O)N3C)c1N1CCC2(CCNC2=O)CC1` [Example 81, 8-[3-Ethynyl-5-(1-methyl-2,2-dioxo-2,3-dihydro-1H-2l6-benzo[c]isothiazol-5-yl)-pyridin-4-yl]-2,8-diaza-spiro[4.5]decan-1-one]: the IC50 in series [1] was found to be 0.66 nM. In addition, in series [2], the microsomal CLint at 0.8 μM amounted to 66 µL/min/mg.

With `Cn1ncc2cc(-c3cncc(Cl)c3N3CCC4(CC3)NCNC4=O)ccc21` [Example 82, 8-[3-Chloro-5-(1-methyl-1H-indazol-5-yl)-pyridin-4-yl]-1,3,8-triaza-spiro[4.5]decan-4-one], the IC50 in series [1] stood at 7.3 nM. Besides, the microsomal CLint at 0.8 μM in series [2] stood at 47 µL/min/mg.

As to `Cn1ncc2cc(-c3cncc(Cl)c3N3CCC(N)(C(N)=O)CC3)ccc21` [Example 83, 4-Amino-5′-chloro-3′-(1-methyl-1H-indazol-5-yl)-3,4,5,6-tetrahydro-2H-[1,4′]bipyridinyl-4-carboxylic acid amide], the IC50 in series [1] came out at 7.1 nM. Besides, the microsomal CLint at 0.8 μM in series [2] came to 37 µL/min/mg.

In the case of `O=C1CC2(CCN(c3c(Cl)cncc3-c3ccc4c(c3)CS(=O)(=O)N4)CC2)C(=O)N1` [Example 84, 8-[3-Chloro-5-(2,2-dioxo-2,3-dihydro-1H-2l6-benzo[c]isothiazol-5-yl)-pyridin-4-yl]-2,8-diaza-spiro[4.5]decane-1,3-dione], the IC50 in series [1] was determined as 15 nM. In addition, the microsomal CLint at 0.8 μM in series [2] was < 10 µL/min/mg.

For the compound `CN1c2ccc(-c3cncc(Cl)c3N3CCC(C#N)(CO)CC3)cc2CS1(=O)=O` [Example 85, 5′-Chloro-4-hydroxymethyl-3′-(1-methyl-2,2-dioxo-2,3-dihydro-1H-2l6-benzo[c]isothiazol-5-yl)-3,4,5,6-tetrahydro-2H-[1,4′]bipyridinyl-4-carbonitrile], the IC50 in series [1] turned out to be 0.7 nM. Also, the microsomal CLint at 0.8 μM in series [2] worked out at 51 µL/min/mg.

For `CN1c2ccc(-c3cncc(Cl)c3N3CCC4(CC3)CC(=O)NC4=O)cc2CS1(=O)=O` [Example 87, 8-[3-Chloro-5-(1-methyl-2,2-dioxo-2,3-dihydro-1H-2l6-benzo[c]isothiazol-5-yl)-pyridin-4-yl]-2,8-diaza-spiro[4.5]decane-1,3-dione], the IC50 in series [1] amounted to 0.16 nM. The microsomal CLint at 0.8 μM in series [2] came out at 13 µL/min/mg.

For `Cn1cc(-c2ccc(-c3cncc(Cl)c3N3CCC4(CC3)NCNC4=O)cc2)cn1` [Example 88, 8-{3-Chloro-5-[4-(1-methyl-1H-pyrazol-4-yl)-phenyl]-pyridin-4-yl}-1,3,8-triaza-spiro[4.5]decan-4-one], the IC50 in series [1] amounted to 3.2 nM. The microsomal CLint at 0.8 μM in series [2] was < 10 µL/min/mg.

On to `Cn1cc(-c2ccc(-c3cncc(Cl)c3N3CCC4(CCNC4=O)CC3)cc2)cn1` [Example 89, 8-{3-Chloro-5-[4-(1-methyl-1H-pyrazol-4-yl)-phenyl]-pyridin-4-yl}-2,8-diaza-spiro[4.5]decan-1-one], for which the IC50 in series [1] is 6.2 nM. Also, in series [2], the microsomal CLint at 0.8 μM amounted to 83 µL/min/mg.

As to `O=C1CC2(CCN(c3c(Cl)cncc3-c3ccc(N4CCOCC4)cc3)CC2)C(=O)N1` [Example 90, 8-[3-Chloro-5-(4-morpholin-4-yl-phenyl)-pyridin-4-yl]-2,8-diaza-spiro[4.5]decane-1,3-dione], in series [1], the IC50 came out at 8.8 nM. For the same compound, the microsomal CLint at 0.8 μM in series [2] turned out to be 66 µL/min/mg.

As for `Cn1cc2cc(-c3cncc(Cl)c3N3CCC4(CCNC4=O)CC3)ccc2n1` [Example 92, 8-[3-Chloro-5-(2-methyl-2H-indazol-5-yl)-pyridin-4-yl]-2,8-diaza-spiro[4.5]decan-1-one], the IC50 in series [1] is 14 nM. For the same compound, the microsomal CLint at 0.8 μM in series [2] was determined as 33 µL/min/mg.

With `O=C1CCc2cc(-c3cncc(Cl)c3N3CCC4(CCNC4=O)CC3)cnc2N1` [Example 93, 6-[5-Chloro-4-(1-oxo-2,8-diaza-spiro[4.5]dec-8-yl)-pyridin-3-yl]-3,4-dihydro-1H-[1,8]naphthyridin-2-one], the IC50 in series [1] turned out to be 34 nM. The microsomal CLint at 0.8 μM in series [2] stood at 48 µL/min/mg.

Turning to `CC(C)n1cc2cc(-c3cncc(Cl)c3N3CCC4(CC3)CNC(=O)O4)ccc2n1` [Example 94, 8-[3-Chloro-5-(2-isopropyl-2H-indazol-5-yl)-pyridin-4-yl]-1-oxa-3,8-diaza-spiro[4.5]decan-2-one], in series [1], the IC50 came to 28 nM. Further, the microsomal CLint at 0.8 μM in series [2] is < 10 µL/min/mg.

Take `CCn1cc2cc(-c3cncc(Cl)c3N3CCC4(CC3)CNC(=O)O4)ccc2n1` [Example 95, 8-[3-Chloro-5-(2-ethyl-2H-indazol-5-yl)-pyridin-4-yl]-1-oxa-3,8-diaza-spiro[4.5]decan-2-one]: in series [1], the IC50 is 4.5 nM. The microsomal CLint at 0.8 μM in series [2] is < 10 µL/min/mg.

`C[C@@H]1NC(=O)OC12CCN(c1c(Cl)cncc1-c1ccc3c(c1)CS(=O)(=O)N3C)CC2` [Example 98, (S)-8-[3-Chloro-5-(1-methyl-2,2-dioxo-2,3-dihydro-1H-2l6-benzo[c]isothiazol-5-yl)-pyridin-4-yl]-4-methyl-1-oxa-3,8-diaza-spiro[4.5]decan-2-one]: in series [1], the IC50 was 4.3 nM. Moreover, the microsomal CLint at 0.8 μM in series [2] is 35 µL/min/mg.

Regarding `C[C@H]1NC(=O)OC12CCN(c1c(Cl)cncc1-c1ccc3c(c1)CS(=O)(=O)N3C)CC2` [Example 99, (R)-8-[3-Chloro-5-(1-methyl-2,2-dioxo-2,3-dihydro-1H-2l6-benzo[c]isothiazol-5-yl)-pyridin-4-yl]-4-methyl-1-oxa-3,8-diaza-spiro[4.5]decan-2-one], the IC50 in series [1] turned out to be 5.2 nM. Further, the microsomal CLint at 0.8 μM in series [2] turned out to be 39 µL/min/mg.

With `C[C@H]1NC(=O)OC12CCN(c1c(Cl)cncc1-c1ccc(-c3cnn(C)c3)cc1)CC2` [Example 100, (R)-8-{3-Chloro-5-[4-(1-methyl-1H-pyrazol-4-yl)-phenyl]-pyridin-4-yl}-4-methyl-1-oxa-3,8-diaza-spiro[4.5]decan-2-one], the IC50 in series [1] is 37 nM. Further, the microsomal CLint at 0.8 μM in series [2] amounted to 31 µL/min/mg.
